Measurements taken from US11207303B2, “Therapeutic agent for fibrodysplasia ossificans progressiva” (Kyoto University, priority 2015, dated 2021).

Tested on: mesenchymal stem cell-like cells derived from iPS cells established from a FOP patient (ACVR1 R206H)
Assay: Activin-A-induced chondrogenic differentiation of FOP patient-derived cells (sulfated glycosaminoglycan quantification)
Type: cell-based
Conditions: 100 ng/mL human activin-A, compound 0.01 to 100 nM, six days, P<0.0001 at 0.1-100 nM rapamycin, 1-100 nM everolimus or temsirolimus vs activin-A only
Text: According to the method of Yamanaka et. al., (Cell, 2007, 131 (5), […]), iPS cells derived from a FOP patient (referred to as “patient-derived iPS cells” in some cases hereafter) were established. […] This mutation is a mutation that replaces the 206th arginine residue into a histidine residue in the amino acid sequence of ACVR1 (the amino acid sequence as set forth in SEQ ID NO:2). In addition, with a view toward using as a control, the mutation of the ACVR1 gene described above was corrected to the normal type (the wild type) by the gene correction with a BAC (Bacterial Artificial Chromosome) knock-in vector, thus establishing corrected iPS cells which may be referred to as “gene-corrected (rescued) iPS cell clone” in some cases hereafter.
The patient-derived iPS cells were cultured on a Matrigel coated plate [manufactured by Becton, Dickinson and Company; trade name, Growth Factor Reduced (GFR) BD MATRIGEL (registered trademark)] in mTeSR1 (manufactured by STEMCELL Technologies Inc.) under a feeder-free condition for two days. […]
These mesenchymal stem cell-like cells were cultured under a condition of a chondrogenic induction medium according to the method of Umeda (Sci. Rep, 2012, 2, 455) for six days and differentiated into chondrocytes. […] Also, compounds for which their inhibitory effect against the chondrogenic differentiation were to be evaluated (concentrations of from 0.01 to 100 nM) were added simultaneously with human activin-A (referred to as “activin-A” in some cases hereafter). […] The degree of differentiation into chondrocytes was measured with a quantification kit for sulfated glycosaminoglycan (manufactured by Biocolor Inc.; trade name, Blyscan Glycosaminoglycan Assay Kit). […]

| SMILES | chondrogenic differentiation (amount of sulfated glycosaminoglycan) |
| --- | --- |
| CO[C@H]1C[C@@H]2CC[C@@H](C)[C@@](O)(O2)C(=O)C(=O)N2CCCC[C@H]2C(=O)O[C@H]([C@H](C)C[C@@H]2CC[C@@H](OCCO)[C@H](OC)C2)CC(=O)[C@H](C)/C=C(\C)[C@@H](O)[C@@H](OC)C(=O)[C@H](C)C[C@H](C)/C=C/C=C/C=C/1C [everolimus] | suppressed the chondrogenic differentiation |
| CO[C@H]1C[C@@H]2CC[C@@H](C)[C@@](O)(O2)C(=O)C(=O)N2CCCC[C@H]2C(=O)O[C@H]([C@H](C)C[C@@H]2CC[C@@H](OP(C)(C)=O)[C@H](OC)C2)CC(=O)[C@H](C)/C=C(\C)[C@@H](O)[C@@H](OC)C(=O)[C@H](C)C[C@H](C)/C=C/C=C/C=C/1C [ridaforolimus] | suppressed the chondrogenic differentiation |
| CO[C@H]1C[C@@H]2CC[C@@H](C)[C@@](O)(O2)C(=O)C(=O)N2CCCC[C@H]2C(=O)O[C@H]([C@H](C)C[C@@H]2CC[C@@H](OC(=O)C(C)(CO)CO)[C@H](OC)C2)CC(=O)[C@H](C)/C=C(\C)[C@@H](O)[C@@H](OC)C(=O)[C@H](C)C[C@H](C)/C=C/C=C/C=C/1C [temsirolimus] | suppressed the chondrogenic differentiation |
